{"source": "patent US20060110743A1", "about": "“Drug evolution: drug design at hot spots” (priority 2004, published 2006)", "test": "UV absorbance (UV spectra), sunscreen properties", "format": "physicochemical", "from_the_text": "FIG. 1 through 8 show UV spectra of 111 compounds sharing PABA “hot building block”, their 16 synthetic intermediates, and one compound with salicylic acid building block. Reference numerals identify compounds according to the numbering adopted in the Experimental section and elsewhere in the specification.\nUV-B (290-320 nm) radiation is known to be harmful for human skin. Acute negative effects include inflammation, sunburns, pigmentation changes and hyperplasia. Chronic negative effects include photoaging, immunosuppression and photocarcinogenesis, including squamous cells, basal cells and melanoma skin cancer. The UV-B radiation is also responsible for 98% of cases of delayed erythema development.\nVarious sunscreen agents have been developed to protect human skin from this harmful UV-B radiation. One known class of such UV-B sunscreen agents is PABA and its various derivatives. Their UV-protecting properties are due to their strong UV absorbance (e266=15,000 for p-aminobenzoic acid). […] As such, these compounds are useful as sunscreen agents.", "data": [{"compound": "Nc1ccc(C(=O)O)cc1", "note": "[Compound (59), 4-Aminobenzoic acid]", "values": [{"measurement": "UV absorbance e266", "result": "15,000"}]}]}
